Literature values, collected in US20140010884A1, “DERMATOLOGICAL COMPOSITIONS COMPRISING RETINOIDS, DISPERSED BENZOYL PEROXIDE AND CARRAGEENANS” (GALDERMA RESEARCH & DEVELOPMENT, priority 2008, published 2014).
Where two headings read alike, the source gives them in different places. Each block holds one molecule with its values, some of them ahead of it.

Columns and labels:
[1] = in PEG 400 and ethanol
[2] = for decomposition time: 40° C.

decomposition of retinoid in presence of benzoyl peroxide (during 24 hours): no decomposition
Compound: COc1ccc(-c2ccc3cc(C(=O)O)ccc3c2)cc1C12CC3CC(CC(C3)C1)C2 [adapalene, 6-[3-(1-adamantyl)-4-methoxyphenyl]-2-naphthoic acid]

Compound: O=C(OOC(=O)c1ccccc1)c1ccccc1 [benzoyl peroxide]
solubility [1]: particularly soluble | decomposition time ([2]; in PEG 400 (0.5 mg/g)): 1.4 days | decomposition time ([2]; in ethanol): 29 days | decomposition time ([2]; in propylene glycol): 53 days | decomposition in suspension (dispersed form) ([2]; in water and propylene glycol, after storing for 90 days): not decomposed

retinoid decomposing in presence of benzoyl peroxide (in 2 hours): 50% | retinoid decomposing in presence of benzoyl peroxide (in 24 hours): 95%
Compound: CC1=C(/C=C/C(C)=C/C=C/C(C)=C/C(=O)O)C(C)(C)CCC1 [tretinoin]
